Experimental data published in PubChem BioAssay AID272 (DTP/NCI, 2004).
Values joined by “and” are separate entries in the source; they are usually repeats but may differ in a detail not shown here. Equal values may be shown once. Inconclusive results are not listed.

System: Lewis lung carcinoma i.m., BDF1 mice, T/C %
Test: NCI In Vivo Anticancer Drug Screen. Data for tumor model Lewis Lung Carcinoma (intramuscular) in B6D2F1 (BDF1) mice
How it was run: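 Value is the ratio of a treated-group measurement (T) to the matching vehicle-control measurement (C), using either survival or tumour size in mice bearing transplanted tumours.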

For `CCc1nc(N)nc(N)c1-c1ccc(Cl)cc1`, the T/C (endpoint: mean tumor weight, dose: 64.0 mg/kg/injection, schedule: Q01DX009 (ip), vehicle: Klucel (hydroxypropylcellulose) (HPC), higher = larger tumour) was 26 % of control, the T/C (endpoint: mean tumor weight, dose: 64.0 mg/kg/injection, schedule: Q01DX009 (sc), vehicle: Klucel (hydroxypropylcellulose) (HPC), higher = larger tumour) was 41 % of control and the T/C (endpoint: mean tumor weight, dose: 64.0 mg/kg/injection, schedule: Q04DX003 (ip), vehicle: Klucel (hydroxypropylcellulose) (HPC), higher = larger tumour) was 70 % of control and 93 % of control. The T/C (endpoint: mean tumor weight, dose: 64.0 mg/kg/injection, schedule: Q08DX002 (ip), vehicle: Klucel (hydroxypropylcellulose) (HPC), higher = larger tumour) was 72 % of control and 81 % of control, the T/C (endpoint: mean tumor weight, dose: 128.0 mg/kg/injection, schedule: Q01DX001 (ip), vehicle: Klucel (hydroxypropylcellulose) (HPC), higher = larger tumour) was 81 % of control and the T/C (endpoint: mean tumor weight, dose: 128.0 mg/kg/injection, schedule: Q01DX001 (oral), vehicle: Klucel (hydroxypropylcellulose) (HPC), higher = larger tumour) was 82 % of control. The T/C (endpoint: mean tumor weight, dose: 128.0 mg/kg/injection, schedule: Q01DX001 (sc), vehicle: Klucel (hydroxypropylcellulose) (HPC), higher = larger tumour) was 50 % of control, the T/C (endpoint: mean tumor weight, dose: 128.0 mg/kg/injection, schedule: Q04DX003 (ip), vehicle: Klucel (hydroxypropylcellulose) (HPC), higher = larger tumour) was 71 % of control and the T/C (endpoint: median survival time, dose: 2.0 mg/kg/injection, schedule: Q06HX008 (ip), vehicle: Klucel (hydroxypropylcellulose) (HPC), higher = longer survival) was 92 % of control. The T/C (endpoint: median survival time, dose: 4.0 mg/kg/injection, schedule: Q01DX009 (ip), vehicle: Klucel (hydroxypropylcellulose) (HPC), higher = longer survival) was 95 % of control, the T/C (endpoint: median survival time, dose: 4.0 mg/kg/injection, schedule: Q01DX009 (sc), vehicle: Klucel (hydroxypropylcellulose) (HPC), higher = longer survival) was 100 % of control and the T/C (endpoint: median survival time, dose: 4.0 mg/kg/injection, schedule: Q06HX004 (ip), vehicle: Klucel (hydroxypropylcellulose) (HPC), higher = longer survival) was 107 % of control. The T/C (endpoint: median survival time, dose: 4.0 mg/kg/injection, schedule: Q06HX008 (ip), vehicle: Klucel (hydroxypropylcellulose) (HPC), higher = longer survival) was 88 % of control and 104 % of control, the T/C (endpoint: median survival time, dose: 8.0 mg/kg/injection, schedule: Q01DX001 (sc), vehicle: Klucel (hydroxypropylcellulose) (HPC), higher = longer survival) was 104 % of control and the T/C (endpoint: median survival time, dose: 8.0 mg/kg/injection, schedule: Q01DX009 (ip), vehicle: Klucel (hydroxypropylcellulose) (HPC), higher = longer survival) was 104 % of control. The T/C (endpoint: median survival time, dose: 8.0 mg/kg/injection, schedule: Q01DX009 (oral), vehicle: Klucel (hydroxypropylcellulose) (HPC), higher = longer survival) was 104 % of control, the T/C (endpoint: median survival time, dose: 8.0 mg/kg/injection, schedule: Q04DX003 (ip), vehicle: Klucel (hydroxypropylcellulose) (HPC), higher = longer survival) was 94 % of control and the T/C (endpoint: median survival time, dose: 8.0 mg/kg/injection, schedule: Q06HX004 (ip), vehicle: Klucel (hydroxypropylcellulose) (HPC), higher = longer survival) was 109 % of control. The T/C (endpoint: median survival time, dose: 8.0 mg/kg/injection, schedule: Q06HX008 (ip), vehicle: Klucel (hydroxypropylcellulose) (HPC), higher = longer survival) was 100 % of control, the T/C (endpoint: median survival time, dose: 8.0 mg/kg/injection, schedule: Q06HX012 (ip), vehicle: Klucel (hydroxypropylcellulose) (HPC), higher = longer survival) was 107 % of control and the T/C (endpoint: median survival time, dose: 8.0 mg/kg/injection, schedule: Q08DX002 (ip), vehicle: Klucel (hydroxypropylcellulose) (HPC), higher = longer survival) was 94 % of control. For the same compound, the T/C (endpoint: median survival time, dose: 12.5 mg/kg/injection, schedule: Q01DX011 (ip), vehicle: steriod suspending solution, higher = longer survival) was 103 % of control, the T/C (endpoint: median survival time, dose: 16.0 mg/kg/injection, schedule: Q01DX001 (ip), vehicle: Klucel (hydroxypropylcellulose) (HPC), higher = longer survival) was 100 % of control and the T/C (endpoint: median survival time, dose: 16.0 mg/kg/injection, schedule: Q01DX001 (sc), vehicle: Klucel (hydroxypropylcellulose) (HPC), higher = longer survival) was 96 % of control. For the same compound, the T/C (endpoint: median survival time, dose: 16.0 mg/kg/injection, schedule: Q01DX009 (ip), vehicle: Klucel (hydroxypropylcellulose) (HPC), higher = longer survival) was 108 % of control, the T/C (endpoint: median survival time, dose: 16.0 mg/kg/injection, schedule: Q01DX009 (oral), vehicle: Klucel (hydroxypropylcellulose) (HPC), higher = longer survival) was 100 % of control and the T/C (endpoint: median survival time, dose: 16.0 mg/kg/injection, schedule: Q01DX009 (sc), vehicle: Klucel (hydroxypropylcellulose) (HPC), higher = longer survival) was 109 % of control. The T/C (endpoint: median survival time, dose: 16.0 mg/kg/injection, schedule: Q04DX003 (ip), vehicle: Klucel (hydroxypropylcellulose) (HPC), higher = longer survival) was 92 % of control and 100 % of control, the T/C (endpoint: median survival time, dose: 16.0 mg/kg/injection, schedule: Q06HX008 (ip), vehicle: Klucel (hydroxypropylcellulose) (HPC), higher = longer survival) was 98 % of control and the T/C (endpoint: median survival time, dose: 32.0 mg/kg/injection, schedule: Q01DX001 (ip), vehicle: Klucel (hydroxypropylcellulose) (HPC), higher = longer survival) was 102 % of control. The T/C (endpoint: median survival time, dose: 32.0 mg/kg/injection, schedule: Q01DX001 (oral), vehicle: Klucel (hydroxypropylcellulose) (HPC), higher = longer survival) was 104 % of control, the T/C (endpoint: median survival time, dose: 32.0 mg/kg/injection, schedule: Q01DX001 (sc), vehicle: Klucel (hydroxypropylcellulose) (HPC), higher = longer survival) was 104 % of control and the T/C (endpoint: median survival time, dose: 32.0 mg/kg/injection, schedule: Q04DX003 (ip), vehicle: Klucel (hydroxypropylcellulose) (HPC), higher = longer survival) was 92 % of control. For the same compound, the T/C (endpoint: median survival time, dose: 32.0 mg/kg/injection, schedule: Q08DX002 (ip), vehicle: Klucel (hydroxypropylcellulose) (HPC), higher = longer survival) was 86 % of control and 102 % of control, the T/C (endpoint: median survival time, dose: 64.0 mg/kg/injection, schedule: Q01DX001 (oral), vehicle: Klucel (hydroxypropylcellulose) (HPC), higher = longer survival) was 104 % of control and the T/C (endpoint: median survival time, dose: 64.0 mg/kg/injection, schedule: Q01DX001 (sc), vehicle: Klucel (hydroxypropylcellulose) (HPC), higher = longer survival) was 90 % of control and 100 % of control. The T/C (endpoint: median survival time, dose: 64.0 mg/kg/injection, schedule: Q01DX009 (sc), vehicle: Klucel (hydroxypropylcellulose) (HPC), higher = longer survival) was 104 % of control, the T/C (endpoint: median survival time, dose: 64.0 mg/kg/injection, schedule: Q04DX003 (ip), vehicle: Klucel (hydroxypropylcellulose) (HPC), higher = longer survival) was 96 % of control and 109 % of control and the T/C (endpoint: median survival time, dose: 128.0 mg/kg/injection, schedule: Q01DX001 (ip), vehicle: Klucel (hydroxypropylcellulose) (HPC), higher = longer survival) was 107 % of control. For the same compound, the T/C (endpoint: median survival time, dose: 128.0 mg/kg/injection, schedule: Q01DX001 (oral), vehicle: Klucel (hydroxypropylcellulose) (HPC), higher = longer survival) was 102 % of control.
